Laboratory results published in patent US12606548B2, “Fungicidal oxadiazoles” (FMC CORPORATION, priority 2019, dated 2026).
Marks after values point to notes of the source that are not given here.

Key:
Type in all cases: in vivo
[1] = tested on: Zymoseptoria tritici; experiment: Test B: test suspension sprayed on wheat seedlings, inoculated next day with Zymoseptoria tritici (wheat leaf blotch), visual disease rating; settings: for Test B rating (% disease control): relative to the controls
Source text: General protocol for preparing test suspensions for Tests A-C: the test compounds were first dissolved in acetone in an amount equal to 3% of the final volume and then suspended at the desired concentration (in ppm) in acetone and purified water (50/50 mix by volume) containing 250 ppm of the surfactant PEG400 (polyhydric alcohol esters). The resulting test suspensions were then used in Tests A-C.
The test suspension was sprayed to the point of run-off on wheat seedlings. The following day the seedlings were inoculated with a spore suspension of Zymoseptoria tritici (the causal agent of wheat leaf blotch) and incubated in a saturated atmosphere at 24° C., for 48 h, and then moved to a growth chamber at 20° C., for 17 days, after which time visual disease ratings were made.
Results for Tests A-C are given in Table A. In the Table, a rating of 100 indicates 100% disease control and a rating of 0 indicates no disease control (relative to the controls). A dash (-) indicates the compound was not tested. The test suspensions were sprayed at the concentration listed in the column “Rate in ppm”, unless otherwise indicated. An asterisk “*” next to the rating indicates a 250 ppm test suspension was used, a double asterisk “**” next to the rating indicates a 100 ppm test suspension was used, and a triple asterisk “***” next to the rating indicates a 50 ppm test suspension was used.

[2] = tested on: Puccinia recondita f. sp. tritici; experiment: Test C: test suspension sprayed on wheat seedlings, inoculated next day with Puccinia recondita f. sp. tritici (wheat leaf rust), visual disease rating; settings: for Test C rating (% disease control): relative to the controls
Method in brief: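 Compounds dissolved in acetone (3% of final volume), suspended in acetone/water 50/50 with 250 ppm PEG400 and sprayed to run-off on wheat seedlings at the listed ppm rate. Inoculated next day with P. recondita spores; 24 h saturated atmosphere at 20° C, then 6 days growth chamber at 20° C; visual disease rating.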

[3] = tested on: Phakopsora pachyrhizi; experiment: Test A: test suspension sprayed on soybean seedlings, inoculated next day with Phakopsora pachyrhizi (Asian soybean rust), visual disease rating; settings: for Test A rating (% disease control): relative to the controls
Method in brief: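 Compounds first dissolved in acetone (3% of final volume), then suspended in acetone/water 50/50 with 250 ppm PEG400 and sprayed to run-off on soybean seedlings at the stated ppm rate. Inoculated next day with P. pachyrhizi spores; 24 h saturated atmosphere at 22 °C, then 8 days in growth chamber at 22 °C before visual disease rating.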

Row | Compound | Test B rating (% disease control) ([1]; 250 ppm test suspension) | Test C rating (% disease control) ([2]; Rate 10 ppm test suspension) | Test A rating (% disease control) ([3]; Rate 10 ppm test suspension) | also measured
1 | COC(=O)c1cnc(Oc2ccc(-c3noc(C(F)(F)F)n3)cc2)s1 [compound 452] | 59* % | 0% | 81% | 
2 | CCOC(=O)c1ccc(Cc2ccc(-c3noc(C(F)(F)F)n3)cc2)cc1 [compound 453] | 50* % | 0% | 92% | 
3 | COC(=O)c1coc(Cc2ccc(-c3noc(C(F)(F)F)n3)cc2)c1 [compound 456] | 65* % | 68% | 100% | 
4 | CCOC(=O)c1cnn(CN2CCC(c3noc(C(F)(F)F)n3)CC2)c1 [compound 458] | 0* % |  |  | Test C rating (% disease control) ([2]; Rate 50 ppm test suspension): 0%; Test A rating (% disease control) ([3]; Rate 50 ppm test suspension): 0%
5 | CCOC(=O)c1cnn(CCN2CCC(c3noc(C(F)(F)F)n3)CC2)c1 [compound 459] | 0* % |  |  | Test C rating (% disease control) ([2]; Rate 50 ppm test suspension): 0%; Test A rating (% disease control) ([3]; Rate 50 ppm test suspension): 0%
6 | O=C(NCC(F)(F)F)c1csc(Cc2ccc(-c3noc(C(F)(F)F)n3)cc2)n1 [compound 463] | 65* % | 100% | 100% | 
7 | COCCNC(=O)c1coc(COc2ccc(-c3noc(C(F)(F)F)n3)cc2)n1 [compound 464] | 94* % | 23% | 79% | 
8 | O=C(NCC(F)(F)F)c1coc(COc2ccc(-c3noc(C(F)(F)F)n3)cc2)n1 [compound 465] | 0* % | 80% | 100% | 
9 | O=C(NCCn1cccn1)c1coc(COc2ccc(-c3noc(C(F)(F)F)n3)cc2)n1 [compound 466] | 3* % | 55% | 100% | 
10 | O=C(NCCC(F)(F)F)c1coc(COc2ccc(-c3noc(C(F)(F)F)n3)cc2)n1 [compound 467] | 6* % | 68% | 97% | 
11 | N#CCNC(=O)c1coc(COc2ccc(-c3noc(C(F)(F)F)n3)cc2)n1 [compound 468] | 22* % | 0% | 84% | 
12 | COCCNC(=O)c1csc(COc2ccc(-c3noc(C(F)(F)F)n3)cc2)n1 [compound 469] | 65* % | 86% | 96% | 
13 | O=C(NCC(F)(F)F)c1csc(COc2ccc(-c3noc(C(F)(F)F)n3)cc2)n1 [compound 470] | 0* % | 94% | 100% | 
14 | O=C(NCCn1cccn1)c1csc(COc2ccc(-c3noc(C(F)(F)F)n3)cc2)n1 [compound 471] | 15* % | 80% | 77% | 
15 | O=C(NCCC(F)(F)F)c1csc(COc2ccc(-c3noc(C(F)(F)F)n3)cc2)n1 [compound 472] | 22* % | 0% | 77% | 
16 | N#CCNC(=O)c1csc(COc2ccc(-c3noc(C(F)(F)F)n3)cc2)n1 [compound 473] | 28* % | 89% | 94% | 
17 | O=C(c1csc(Cc2ccc(-c3noc(C(F)(F)F)n3)cc2)n1)N1CCOCC1 [compound 487] |  | 100% | 100% | Test B rating (% disease control) ([1]; 100 ppm test suspension (double asterisk)): 98** %
18 | CCNC(=O)c1csc(Cc2ccc(-c3noc(C(F)(F)F)n3)cc2)n1 [compound 488] | 99* % | 100% | 100% | 
19 | COCC(COC)NC(=O)c1csc(Cc2ccc(-c3noc(C(F)(F)F)n3)cc2)n1 [compound 489] | 92* % | 99% | 100% | 
20 | CON=C(CCl)COC(=O)c1cnn(Cc2ccc(-c3noc(C(F)(F)F)n3)cc2)c1 [compound 494] | 47* % | 0% | 100% | 
21 | O=C(CCl)COC(=O)c1cnn(Cc2ccc(-c3noc(C(F)(F)F)n3)cc2)c1 [compound 495] | 43* % | 0% | 100% | 
22 | CC1(C)OCC(COC(=O)c2cnn(Cc3ccc(-c4noc(C(F)(F)F)n4)cc3)c2)O1 (stereo not drawn) [compound 496] | 48* % | 0% | 100% | 
23 | CN(C)C(=O)C1=NOC(COc2cccc(-c3noc(C(F)(F)F)n3)c2)C1 (stereo not drawn) [compound 502] | 62% |  |  | Test C rating (% disease control) ([2]; Rate 250 ppm test suspension): 100%; Test A rating (% disease control) ([3]; Rate 250 ppm test suspension): 100%
24 | ethyl 1-[[4-[5-(trifluoromethyl)-1,2,4-oxadiazol-3-yl]phenyl]methyl]-1H-pyrazole-4-carboxylate [Compound 83] |  |  |  | Test B disease control rating ([1]; 270 ppm test suspension): 5%; Test C disease control rating ([2]; 270 ppm test suspension): 100%; Test A disease control rating ([3]; 270 ppm test suspension): 100%
25 | methyl 1,2-dihydro-2-oxo-1-[[4-[5-(trifluoromethyl)-1,2,4-oxadiazol-3-yl]phenyl]methyl]-4-pyridinecarboxylate [Compound 24] |  |  |  | Test B disease control rating ([1]; 270 ppm test suspension): 18%; Test C disease control rating ([2]; 270 ppm test suspension): 100%; Test A disease control rating ([3]; 270 ppm test suspension): 100%
26 | methyl 2-[[4-[5-(trifluoromethyl)-1,2,4-oxadiazol-3-yl]-phenoxy]methyl]oxazole-4-carboxylate [Compound 403] |  |  |  | Test B disease control rating ([1]; 250 ppm test suspension): 93%; Test C disease control rating ([2]; 250 ppm test suspension): 100%; Test A disease control rating ([3]; 250 ppm test suspension): 100%
27 | methyl 4,5-dihydro-2-[[4-[5-(trifluoromethyl)-1,2,4-oxadiazol-3-yl]phenyl]methyl]-4-oxazolecarboxylate [Compound 74] |  |  |  | Test B disease control rating ([1]; 250 ppm test suspension): 0%; Test C disease control rating ([2]; 250 ppm test suspension): 96%; Test A disease control rating ([3]; 250 ppm test suspension): 100%
28 | α-(phenylamino)-4-[5-(trifluoromethyl)-1,2,4-oxadiazol-3-yl]benzeneacetonitrile [Compound 13] |  |  |  | Test B disease control rating ([1]; 250 ppm test suspension): 86%; Test C disease control rating ([2]; 250 ppm test suspension): 100%; Test A disease control rating ([3]; 250 ppm test suspension): 100%
